# Patent US10149472B2, “Chitin oligomers for use in promoting non-leguminous plant growth and development” (Wisconsin Alumni Research Foundation, priority 2015, dated 2018)
# Assays:
# [1] = system: Hard Red Spring Wheat; assay: Seed treatment of hard red spring wheat in pots; type: in vivo; details: seed coating 125 μl of 10^−6 M, 2 weeks after planting
# Method: Five grams of hard red spring wheat seeds were added to three separate 50 ml tubes. A water solution containing 0.5% ethanol was added to the control tube, 125 μl of 10^−6 M CO4 solution was added to the CO4 tube, and 125 μl of 10^−6 M CO8 solution was added to the CO8 tube. Each tube was then shaken to coat the seeds. Seeds were potted immediately following treatment into moistened SUNGRO® potting mix in 4×6×6 cm pots. Plants were watered by pouring water into the tray containing the pots up to about ¾ inch high. After sowing the seeds, the pots were randomly distributed (16 pots per treatment) throughout the tray and placed underneath continuous light at room temperature for 1 week. Liquid Fahräeus medium (plant fertilizer solution; see above) was applied every 2 days or when necessary. After a week, the pots were placed underneath 10 h light and 14 h dark cycle at room temperature for 1 week. After 1 week underneath 10 h light and 14 h dark cycle (2 weeks after planting), the plants were carefully removed from the pots, and as much soil as possible was shaken off. The remaining soil was removed by submerging the root system into a beaker of water. The number of primary roots (PR), lateral roots (LR), root system length (RSL) and dry weight (DW) was then measured for all plants.
# [2] = system: Rice; assay: Seed treatment of rice in vitro (plates); type: in vivo; details: seed coating 10^−6 M; 33 days; vs ethanol control; FIG. 10
# Method: Rice seeds were sterilized using 2% bleach. The sterilized seeds were then divided among 3 treatment groups of 10 seeds each into 15 ml falcon tubes. To the control tube, 0.5% ethanol in water was added. To the CO4 tube, 100 μl of 10^−6 M CO4 solution was added. To the CO8 tube, 100 μl of 10^−6 M CO8 solution was added. Each tube was then shaken to coat the seeds. The coated seeds were then placed on sterile Petri dishes in a hood and were left to dry overnight in the hood. The seeds were then germinated on damp germination paper in sterile Petri dishes for 5 days. The resulting seedlings were transferred to Fahräeus medium plates containing damp germination paper, and the plates were wrapped in Parafilm®. The roots part of the plate was covered with aluminum foil. The plants were grown at room temperature under continuous light for 33 days. The length of the shoot and root systems was measured for all plants.
# [3] = system: rice; assay: Root architecture modification in wild-type rice after submersion treatment; type: in vivo, Oryza sativa cv Nipponbare; details: 10^−8M, 24 hours submersion, assessed after two weeks, FIG. 3
# Method: Oryza sativa cv Nipponbare wild-type and Tos17 insertion lines in POLLUX (line NC6453) and DMI3 were used for root architecture experiments (12, 13). Seeds were prepared by sterilizing with 2% bleach for 20 minutes, followed by 3, 5-minute rinses with sterile water. The sterile seeds were then imbibed overnight. Seeds were then plated on damp germination paper in Petri plates under sterile conditions and germinated in the dark at 25 degrees for 7 days. Germinated rice plants were then plated on Fahraeus medium on germination paper and grown at 22 degrees under constant light. After 5 days the plants were treated with 10^−8M LCOs and COs for 24 hours by submersion and re-plated onto Fåhræus Medium 1.5% agar plates (0.132 g/L CaCl2, 0.12 g/L MgSO4.7H2O, 0.1 g/L KH2PO4, 0.075 g/L Na2HPO4.2H2O, 5 mg/L Fe-citrate, and 0.07 mg/L each of MnCl2.4H2O, CuSO4.5H2O, ZnCl2, H3BO3, and Na2MoO4.2H2O, adjusted to pH 6.5 before autoclaving). As all signals were suspended in 50% ethanol, the appropriate concentration of ethanol in sterile DI water served as a control. Root system architecture was assessed after 2 weeks.
# Total lateral roots of rice were enumerated manually two weeks after application of 10^−8M COs and LCOs. As COs and LCOs were suspended in 50% ethanol, the control is sterile deionized water containing the appropriate amount of ethanol. Lateral roots were defined as large and fine lateral roots emerging from crown roots, as well as fine lateral roots emerging from large lateral roots. Root system length was measured starting from the root-shoot junction to the tip of the longest root. The number of crown roots was assessed manually as those roots emerging from the root-shoot junction. Root type characterizations were based upon the descriptions in Gutjahr et al. (19). Data were assessed for normality using the Shapiro-Wilk test (α=0.01), and statistical significance was determined using a paired t-test assuming unequal variances, or a Mann-Whitney-Wilcoxon Test if normality was not observed (α=0.05). All statistical analysis was conducted using the R software package (20).
# [4] = system: Hard Red Spring Wheat (HRSW); assay: Seed treatment of hard red spring wheat in vitro (plates); type: in vivo; details: seed coating 125 μl of 10^−6 M; for Number of Lateral Roots / Number of Primary Roots: 4-5 days after transfer
# Method: Hard red spring wheat seeds were surface sterilized using ethanol and bleach. The sterilized seeds were then divided among 4 treatment groups of 5 grams each into 50 ml falcon tubes. To the control tube, 0.5% ethanol in water was added. To the CO4 tube, 125 μl of 10^−6 M CO4 solution was added. To the CO8 tube, 125 μl of 10^−6 M CO8 solution was added. To the “Consensus” tube, 125 μl of 10^−6 M solution of chitosan (CONSENSUS® chitosan; Loveland Products, Inc., Loveland, Colo.) was added. Each tube was then shaken to coat the seeds. The coated seeds were then placed on sterile Petri dishes in a hood and were left to dry overnight in the hood.
# The seeds were then germinated on damp germination paper in sterile Petri dishes for 4 days. The resulting seedlings were transferred to Fahräeus medium plates containing damp germination paper, and the plates were wrapped in Parafilm®. Fahräeus medium contains 0.5 m M MgSO4, 0.7 mM KH2PO4, 0.4 mM Na2HPO4, 0.02 mM Fe-EDTA, 0.01 mM MnSO4, 0.007 mM CuSO4, 0.006 mM ZnSO4, 0.016 mM H3BO3, 0.001 mM Na2MoO4, and 15 g/L Agar for plant tissue, adjusted to pH 6.5 before autoclaving. The plants were grown at room temperature under continuous light for 4-5 days. The number of primary roots (PR), lateral roots (LR), root system length (RSL) and dry weight (DW) was then measured for all plants.
SMILES,Number of Lateral Roots [1],Number of Primary Roots [1],Root System Length (cm) [1] [cm],root system length [2],shoot length [2],crown root growth [3],lateral root growth [3],Dry Weight [4] [g],Number of Lateral Roots [4],Number of Primary Roots [4],Root System Length (cm) ([4]; * significant at P < 0.05)
"CC(=O)N[C@H]1[C@H](O[C@H]2[C@H](O)[C@@H](NC(C)=O)C(O)O[C@@H]2CO)O[C@H](CO)[C@@H](O[C@@H]2O[C@H](CO)[C@@H](O[C@@H]3O[C@H](CO)[C@@H](O)[C@H](O)[C@H]3NC(C)=O)[C@H](O)[C@H]2NC(C)=O)[C@@H]1O (stereo partly shown) [CO4, tetra-N-acetylchitotetraose]",16.25,3.15,11.75,significantly increased,significantly increased,promoted,promoted,0.0206,3.73,5.20,
"CC(=O)N[C@H]1[C@H](O[C@H]2[C@H](O)[C@@H](NC(C)=O)[C@H](O[C@H]3[C@H](O)[C@@H](NC(C)=O)[C@H](O[C@H]4[C@H](O)[C@@H](NC(C)=O)C(O)O[C@@H]4CO)O[C@@H]3CO)O[C@@H]2CO)O[C@H](CO)[C@@H](O[C@@H]2O[C@H](CO)[C@@H](O[C@@H]3O[C@H](CO)[C@@H](O[C@@H]4O[C@H](CO)[C@@H](O[C@@H]5O[C@H](CO)[C@@H](O)[C@H](O)[C@H]5NC(C)=O)[C@H](O)[C@H]4NC(C)=O)[C@H](O)[C@H]3NC(C)=O)[C@H](O)[C@H]2NC(C)=O)[C@@H]1O (stereo partly shown) [CO8, octa-N-acetyl-chitooctaose]",14.30,3.35,12.22,,,promoted,promoted,0.0191,3.00,5.20,11.51
